Measurements reported in ChEMBL document CHEMBL1154782, “Discovery of Trp-His and His-Arg analogues as new structural classes of short antimicrobial peptides” (J Med Chem, 2009).
Converted amounts (≈) assume the structure as drawn. Where a SMILES comes first, the peptide text is derived from it. The star is where a group is joined. Boc = CC(C)(C)OC(=O)*; NHBn = c1ccc(CN*)cc1

Key:
L929 = experiment: Cytotoxicity against mouse L929 cells up to 200 ug/mL after 5 days by MTT assay; assay type: cell-based; conditions: l929, 120 h
Staphylococcus aureus [1] = experiment: Antibacterial activity against methicillin-resistant Staphylococcus aureus DSM 50128509; assay type: functional, organism-based
[2] = test system: Staphylococcus epidermidis; experiment: Antibacterial activity against methicillin-resistant Staphylococcus epidermidis DSM 50160384; assay type: functional, organism-based
Escherichia coli [3] = experiment: Antibacterial activity against Escherichia coli ATCC 35218; assay type: functional, organism-based
Klebsiella pneumoniae [4] = experiment: Antibacterial activity against Klebsiella pneumoniae ATCC 700603 after 15 to 18 hrs under aerobic condition by modified broth microdilution method; assay type: functional
Pseudomonas aeruginosa [5] = experiment: Antibacterial activity against Pseudomonas aeruginosa ATCC 9027; assay type: functional, organism-based
Candida albicans [6] = experiment: Antifungal activity against Candida albicans ATCC 10231 after 15 to 18 hrs under aerobic condition by modified broth microdilution method; assay type: functional
Pseudomonas aeruginosa [7] = experiment: Antibacterial activity against Pseudomonas aeruginosa ATCC 9027 after 15 to 18 hrs under aerobic condition by modified broth microdilution method; assay type: functional
Staphylococcus aureus [8] = experiment: Antibacterial activity against methicillin-resistant Staphylococcus aureus DSM 50128509 after 15 to 18 hrs under aerobic condition by modified broth microdilution method; assay type: functional
[9] = test system: Staphylococcus epidermidis; experiment: Antibacterial activity against methicillin-resistant Staphylococcus epidermidis DSM 50160384 after 15 to 18 hrs under aerobic condition by modified broth microdilution method; assay type: functional
Escherichia coli [10] = experiment: Antibacterial activity against Escherichia coli ATCC 35218 after 15 to 18 hrs under aerobic condition by modified broth microdilution method; assay type: functional
Klebsiella pneumoniae [11] = experiment: Antibacterial activity against Klebsiella pneumoniae ATCC 700603; assay type: functional, organism-based
Candida albicans [12] = experiment: Antifungal activity against Candida albicans ATCC 10231; assay type: functional, organism-based

SMILES	Activity (L929)	IC50 (Staphylococcus aureus [1]) [µg/mL]	IC50 [2] [µg/mL]	IC50 (Escherichia coli [3]) [µg/mL]	MIC (Klebsiella pneumoniae [4]) [µg/mL]	IC50 (Pseudomonas aeruginosa [5]) [µg/mL]	MIC (Candida albicans [6]) [µg/mL]	MIC (Pseudomonas aeruginosa [7]) [µg/mL]	MIC (Staphylococcus aureus [8]) [µg/mL]	MIC [9] [µg/mL]	MIC (Escherichia coli [10]) [µg/mL]	IC50 (Klebsiella pneumoniae [11]) [µg/mL]	IC50 (Candida albicans [12]) [µg/mL]
CC(C)c1nc(C[C@H](NC(=O)OC(C)(C)C)C(=O)N[C@@H](CCCNC(=N)N)C(=O)NCc2ccccc2)c[nH]1	Non-toxic	17.9 (≈ 33.1 µM)	12.7 (≈ 23.3 µM)	23.7 (≈ 43.7 µM)	> 200	45.1 (≈ 83.2 µM)	> 200	200 (≈ 369 µM)	100 (≈ 184 µM)	100 (≈ 184 µM)	200 (≈ 369 µM)	–	–
N[C@@H](Cc1c[nH]c2ccccc12)C(=O)N[C@@H](Cc1c[nH]c(C23CC4CC(CC(C4)C2)C3)n1)C(=O)NCc1ccccc1	Non-toxic	16 (≈ 28.3 µM)	4.7 (≈ 8.32 µM)	21.3 (≈ 37.8 µM)	200 (≈ 354 µM)	–	50 (≈ 88.5 µM)	> 200	100 (≈ 177 µM)	50 (≈ 88.5 µM)	200 (≈ 354 µM)	32 (≈ 56.6 µM)	8.25 (≈ 14.6 µM)
CC(C)(C)OC(=O)N[C@@H](Cc1c[nH]c(C23CC4CC(CC(C4)C2)C3)n1)C(=O)N[C@@H](CCCNC(=N)N)C(=O)NCc1ccccc1	Non-toxic	7.47 (≈ 11.8 µM)	11.5 (≈ 18.1 µM)	–	100 (≈ 158 µM)	27.2 (≈ 42.9 µM)	> 200	100 (≈ 158 µM)	20 (≈ 31.5 µM)	100 (≈ 158 µM)	> 200	15.1 (≈ 23.8 µM)	–
COC(=O)[C@H](CCCNC(=N)N)NC(=O)[C@H](Cc1c[nH]c(C2CCC2)n1)NC(=O)OC(C)(C)C	Non-toxic	–	–	18.1 (≈ 37.8 µM)	200 (≈ 417 µM)	–	> 200	> 200	> 200	> 200	200 (≈ 417 µM)	15 (≈ 31.2 µM)	–
CC(C)c1nc(C[C@H](N)C(=O)N[C@@H](CCCNC(=N)N)C(=O)NCc2ccccc2)c[nH]1	Non-toxic	4.85 (≈ 11 µM)	12.8 (≈ 28.8 µM)	–	> 200	27.8 (≈ 62.7 µM)	> 200	200 (≈ 452 µM)	100 (≈ 226 µM)	200 (≈ 452 µM)	> 200	–	–
N=C(N)NCCC[C@H](NC(=O)[C@@H](N)Cc1c[nH]c(C23CC4CC(CC(C4)C2)C3)n1)C(=O)NCc1ccccc1	Non-toxic	2.15 (≈ 4.02 µM)	1.19 (≈ 2.23 µM)	9.29 (≈ 17.4 µM)	100 (≈ 187 µM)	–	50 (≈ 93.5 µM)	> 200	5 (≈ 9.35 µM)	10 (≈ 18.7 µM)	200 (≈ 374 µM)	16.1 (≈ 30.2 µM)	7.46 (≈ 14 µM)
COC(=O)[C@H](CCCNC(=N)N)NC(=O)[C@@H](N)Cc1c[nH]c(C23CC4CC(CC(C4)C2)C3)n1	Non-toxic	3.67 (≈ 7.99 µM)	4.28 (≈ 9.31 µM)	–	200 (≈ 435 µM)	35.5 (≈ 77.2 µM)	> 200	200 (≈ 435 µM)	10 (≈ 21.8 µM)	20 (≈ 43.5 µM)	> 200	19.4 (≈ 42.2 µM)	–
N[C@@H](Cc1c[nH]c2ccccc12)C(=O)N[C@@H](Cc1c[nH]c(C2CCCCC2)n1)C(=O)NCc1ccccc1	Non-toxic	4.8 (≈ 9.36 µM)	7.54 (≈ 14.7 µM)	–	50 (≈ 97.5 µM)	–	100 (≈ 195 µM)	> 200	10 (≈ 19.5 µM)	50 (≈ 97.5 µM)	> 200	17.4 (≈ 33.9 µM)	8.41 (≈ 16.4 µM)
COC(=O)[C@H](CCCNC(=N)N)NC(=O)[C@@H](N)Cc1c[nH]c(C(C)(C)C)n1	Non-toxic	5.39 (≈ 14.1 µM)	2.53 (≈ 6.63 µM)	18.5 (≈ 48.4 µM)	200 (≈ 524 µM)	–	100 (≈ 262 µM)	> 200	20 (≈ 52.4 µM)	20 (≈ 52.4 µM)	200 (≈ 524 µM)	10.5 (≈ 27.6 µM)	9.65 (≈ 25.3 µM)
COC(=O)[C@H](CCCNC(=N)N)NC(=O)[C@H](Cc1c[nH]c(C2CCCCC2)n1)NC(=O)OC(C)(C)C	Non-toxic	10.1 (≈ 19.9 µM)	10 (≈ 19.7 µM)	4.93 (≈ 9.71 µM)	> 200	27.5 (≈ 54.2 µM)	100 (≈ 197 µM)	200 (≈ 394 µM)	200 (≈ 394 µM)	100 (≈ 197 µM)	100 (≈ 197 µM)	–	9.44 (≈ 18.6 µM)
COC(=O)[C@H](CCCNC(=N)N)NC(=O)[C@H](Cc1c[nH]c(C23CC4CC(CC(C4)C2)C3)n1)NC(=O)OC(C)(C)C	Non-toxic	9.77 (≈ 17.5 µM)	6.87 (≈ 12.3 µM)	8.33 (≈ 14.9 µM)	200 (≈ 357 µM)	25.7 (≈ 45.9 µM)	200 (≈ 357 µM)	100 (≈ 179 µM)	50 (≈ 89.3 µM)	50 (≈ 89.3 µM)	100 (≈ 179 µM)	31.5 (≈ 56.2 µM)	16.1 (≈ 28.8 µM)
COC(=O)[C@H](Cc1c[nH]c(C23CC4CC(CC(C4)C2)C3)n1)NC(=O)[C@@H](N)Cc1c[nH]c2ccccc12	Non-toxic	2.3 (≈ 4.7 µM)	4.59 (≈ 9.37 µM)	–	200 (≈ 408 µM)	–	> 200	> 200	20 (≈ 40.8 µM)	20 (≈ 40.8 µM)	> 200	24.4 (≈ 49.9 µM)	–
N=C(N)NCCC[C@H](NC(=O)[C@@H](N)Cc1c[nH]c(C2CCCCC2)n1)C(=O)NCc1ccccc1	Non-toxic	2.06 (≈ 4.27 µM)	1 (≈ 2.07 µM)	17.5 (≈ 36.3 µM)	200 (≈ 414 µM)	–	200 (≈ 414 µM)	> 200	20 (≈ 41.4 µM)	5 (≈ 10.4 µM)	200 (≈ 414 µM)	23.5 (≈ 48.7 µM)	18 (≈ 37.3 µM)
CC(C)(C)OC(=O)N[C@@H](Cc1c[nH]c2ccccc12)C(=O)N[C@@H](Cc1c[nH]cn1)C(=O)NCc1ccccc1 (Boc-Trp-His-NHBn)	Non-toxic	–	15.6 (≈ 29.4 µM)	–	200 (≈ 377 µM)	40.7 (≈ 76.7 µM)	200 (≈ 377 µM)	200 (≈ 377 µM)	> 200	200 (≈ 377 µM)	> 200	21.2 (≈ 40 µM)	9.7 (≈ 18.3 µM)
O=C(O)c1cn(C2CC2)c2cc(N3CCNCC3)c(F)cc2c1=O [CIPROFLOXACIN]	–	–	–	–	–	1.18 (≈ 3.56 µM)	–	–	–	–	–	–	–
